Target: human CB1 receptor (Homo sapiens, UniProt P21554)
Experiment: cell-based

Sequence of human CB1 receptor (P21554 whole entry): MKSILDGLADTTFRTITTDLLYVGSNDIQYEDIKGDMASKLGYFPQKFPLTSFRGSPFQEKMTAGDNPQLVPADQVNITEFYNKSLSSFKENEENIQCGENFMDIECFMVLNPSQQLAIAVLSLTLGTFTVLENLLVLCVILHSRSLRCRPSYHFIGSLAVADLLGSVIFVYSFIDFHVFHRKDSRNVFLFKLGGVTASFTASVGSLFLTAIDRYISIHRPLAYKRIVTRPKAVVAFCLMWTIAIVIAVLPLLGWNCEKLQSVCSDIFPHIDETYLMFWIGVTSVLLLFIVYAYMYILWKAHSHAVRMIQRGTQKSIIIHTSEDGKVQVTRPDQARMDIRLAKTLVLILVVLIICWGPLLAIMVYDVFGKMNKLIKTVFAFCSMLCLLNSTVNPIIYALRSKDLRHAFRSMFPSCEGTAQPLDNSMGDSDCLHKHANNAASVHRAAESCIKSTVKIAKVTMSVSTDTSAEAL

SMILES	inverse agonist mark, human CB1 receptor (asterisk at the compound number)	EC50 [µM]
CC(C)(C)NC(=O)c1cnc2c(c1)N(S(=O)(=O)c1ccc(Oc3ccccc3)cc1)CCO2 [Example 93, N-tert-butyl-1-(4-phenoxyphenylsulfonyl)-2,3-dihydro-1H-pyrido[2,3-b][1,4]oxazine-7-carboxamide]	2, 3, 5, 7, 8, 10, 39, 58, 61*, 69, 93*, 101, 102, 109, 110, 111, 112,	
COc1ccc(S(=O)(=O)N2CCOc3ncc(C(=O)NC(C)(C)CO)cc32)cc1Cl [Example 100, 1-(3-chloro-4-methoxyphenylsulfonyl)-N-(1-hydroxy-2-methylpropan-2-yl)-2,3-dihydro-1H-pyrido[2,3-b][1,4]oxazine-7-carboxamide]		> 30
COc1ccc(S(=O)(=O)N2CCOc3ncc(C(=O)NCC(C)(C)O)cc32)cc1F [Example 105]		> 30
CC(C)(O)CNC(=O)c1cnc2c(c1)N(S(=O)(=O)c1ccc(F)cc1F)CCO2 [Example 106, 1-(2,4-difluorophenylsulfonyl)-N-(2-hydroxy-2-methylpropyl)-2,3-dihydro-1H-pyrido[2,3-b][1,4]oxazine-7-carboxamide]		> 30
COc1ccc(S(=O)(=O)N2CCOc3ncc(C(=O)NCC(C)(C)O)cc32)c(F)c1 [Example 107]		> 30
CC(C)(O)CNC(=O)c1cnc2c(c1)N(S(=O)(=O)c1ccc(F)c(Cl)c1)CCO2 [Example 108, 1-(3-chloro-4-fluorophenylsulfonyl)-N-(2-hydroxy-2-methylpropyl)-2,3-dihydro-1H-pyrido[2,3-b][1,4]oxazine-7-carboxamide]		> 30
O=C(NCCO)c1cnc2c(c1)N(S(=O)(=O)c1ccc(Cl)c(Cl)c1)CCO2 [Example 114, 1-(3,4-dichlorophenyl-sulfonyl)-N-(2-hydroxyethyl)-2,3-dihydro-1H-pyrido[2,3-b][1,4]oxazine-7-carboxamide]		> 30
CN(CCO)C(=O)c1cnc2c(c1)N(S(=O)(=O)c1ccc(Cl)c(Cl)c1)CCO2 [Example 120, 1-(3,4-dichlorophenyl-sulfonyl)-N-(2-hydroxy-ethyl)-N-methyl-2,3-dihydro-1H-pyrido[2,3-b][1,4]oxazine-7-carboxamide]		> 30
O=C(c1cnc2c(c1)N(S(=O)(=O)c1ccc(Cl)c(Cl)c1)CCO2)N1CCC[C@@H]1CO [Example 122, (R)-(1-(3,4-dichlorophenyl-sulfonyl)-2,3-dihydro-1H-pyrido[2,3-b][1,4]oxazin-7-yl)(2-(hydroxymethyl)pyrrolidin-1-yl)methanone]		> 30
CN1CCN(C(=O)c2cnc3c(c2)N(S(=O)(=O)c2ccc(Cl)c(Cl)c2)CCO3)CC1 [Example 123, (1-(3,4-dichlorophenyl-sulfonyl)-2,3-dihydro-1H-pyrido [2,3-b][1,4]oxazin-7-yl)(4-methylpiperazin-1-yl)methanone]		> 30
O=C(c1cnc2c(c1)N(S(=O)(=O)c1ccc(Cl)c(Cl)c1)CCO2)N1CCC(F)(F)C1 [Example 126, (1-(3,4-dichlorophenyl-sulfonyl)-2,3-dihydro-1H-pyrido[2,3-b][1,4]oxazin-7-yl)(3,3-difluoro-pyrrolidin-1-yl)methanone]		> 30
O=C(c1cnc2c(c1)N(S(=O)(=O)c1ccc(Cl)c(Cl)c1)CCO2)N1CCC(O)CC1 [Example 127, (1-(3,4-dichlorophenyl-sulfonyl)-2,3-dihydro-1H-pyrido[2,3-b][1,4]oxazin-7-yl)(4-hydroxypiperidin-1-yl)methanone]		> 30
O=C(c1cnc2c(c1)N(S(=O)(=O)c1ccc(Cl)c(Cl)c1)CCO2)N1CC(F)(F)C1 [Example 128, (1-(3,4-dichlorophenyl-sulfonyl)-2,3-dihydro-1H-pyrido[2,3-b][1,4]oxazin-7-yl)(3,3-difluoroazetidin-1-yl)methanone]		> 30
COC1CN(C(=O)c2cnc3c(c2)N(S(=O)(=O)c2ccc(Cl)c(Cl)c2)CCO3)C1 [Example 129, (1-(3,4-dichlorophenyl-sulfonyl)-2,3-dihydro-1H-pyrido[2,3-b][1,4]oxazin-7-yl)(3-methoxyazetidin-1-yl)methanone]		> 30

— US7960377B2 (priority 2008, dated 2011)
